This note sets out measurements from US11202795B2, “Means and methods for treatment of early-onset Parkinson's disease” (VIB VZW, priority 2014, dated 2021).

“Also recorded” adds a separate entry of the source.

The test system of one assay is PINK1 mutant flies. As to the kind of experiment: Flight assay of PINK1 mutant flies fed with FAS inhibitor. Type of assay: in vivo, Drosophila melanogaster. On the procedure:
FASN is a 273 kDa protein that produces palmitate, which is a precursor of fatty acids in a seven-step enzymatic reaction. FASN uses malonyl CoA and acetyl CoA as substrates. Several inhibitors of FASN function exist. Tests were performed to determine whether defective flight in PINK1 mutants could be pharmacologically rescued.
One-day-old adult flies were placed on molasses medium supplemented with 100 μM Cerulenin (Enzo Life Sciences) or 3 μM Irgasan (Sigma) (2.5% final ethanol concentration) or supplemented with 2.5% ethanol for control medium. […] To determine mitochondrial morphology, embryos were placed on molasses medium supplemented with 100 μM Cerulenin (2.5% final ethanol concentration) or supplemented with 2.5% ethanol for control medium and grown to the third instar larval stage. These third instar larvae were dissected and used for experiments (see below).
The flight assay was conducted on male flies using batches of five flies each. The flies were placed in an empty vial and gently tapped.

Assay [1] concerns control cells (PINK1+/+ MEF and L2134 controls). Description: ATP levels of control cells treated with FASN inhibitor. Type of assay: cell-based. On the procedure: Cells were treated with 10 μM Cerulenin (0.1% ethanol) or control medium supplemented with 0.1% ethanol. ATP levels were determined as previously described (Morais et al. (2014) Science 344:203-207) using an ATP determination kit (Invitrogen) according to supplier's protocol. Luminescence was measured on a luminometer (Biorad) and values were normalized to total protein content (Bradford method).

A further assay relates to PINK−/− MEFs. Description: Shotgun lipidomics of mitochondrial fractions (cardiolipin levels). Type of assay: cell-based, mice. The note with it: compared to control MEFs. The text has this: Nonetheless, when FASN activity was lowered further in PINK1^−/− mutants, either by genetic or by pharmacological inhibition, the palmitate levels drop further. […] Only unsaturated phosphatidylglycerol (PG) is a good substrate for CL synthase (Bobyleva et al. (1997) Biochem. Mol. Biol. Int. 41:469-480) and high levels of palmitate shift the balance toward more saturated PG (Ostrander et al. (2001) J. Biol. Chem. 276:38061-38067). Opposite to this, it was confirmed that inhibition of FASN results in more unsaturated PG, while wondering if FASN inhibition results in increased CL levels.
(§1) Cells were treated with 10 μM Cerulenin (0.1% ethanol) or control medium supplemented with 0.1% ethanol.
Mitochondria were isolated and resuspended in ammonium bicarbonate buffer. Lipids were extracted and analyzed using shotgun mass spectrometry (lipotype). In short, using Chloroform and Methanol, lipids were extracted via a two-step lipid extraction process. These extracted lipids were then immediately subjected to mass spectrometric analysis. Lipid data were acquired on a hybrid quadrupole/ORBITRAP® mass spectrometer (Q-Exactive, Thermo-Fisher) equipped with an automated nanoflow electrospray ion source (TRIVERSA NANOMATE® Advion) in both positive and negative ion mode. LIPOTYPE® XPLORER® was used to identify lipids on unprocessed mass spectra.

Assay [2] has as its system fibroblasts from patients carrying mutations in PINK1 (L1703). Description: ATP levels of fibroblasts from patients carrying PINK1 mutations. To be noted: patient fibroblasts with PINK1 mutations (L1703), 10 μM Cerulenin vs untreated cells. Type of assay: cell-based, human. On the procedure:
To directly test if further lowering FASN activity in PINK mutant cells rescues the mitochondrial dysfunction in these cells, ATP levels were tested. […] Thus, the inhibition of FASN with an inhibitor rescues in flies and cells isolated from mice and patients the PINK1-induced mitochondrial defects.
as §1
(§2) ATP levels were determined as previously described (Morais et al. (2014) Science 344:203-207) using an ATP determination kit (Invitrogen) according to supplier's protocol. Luminescence was measured on a luminometer (Biorad) and values were normalized to total protein content (Bradford method).

Another assay has as its system PINK1−/− MEFs. Description: ATP levels of PINK1−/− MEFs treated with FASN inhibitor. Type of assay: cell-based, mice. To be noted: 10 μM Cerulenin vs untreated cells. On the procedure:
To directly test if further lowering FASN activity in PINK mutant cells rescues the mitochondrial dysfunction in these cells, ATP levels were tested.
as §1, §2

`Oc1cc(Cl)ccc1Oc1ccc(Cl)cc1Cl` [irgasan]: in the assay with PINK1 mutant flies (PINK1 mutant flies (B9), concentrations between 1-10 μM irgasan in food), the flight ability entry is “clearly enhance the flight ability”.
On to `C/C=C/C/C=C/CCC(=O)[C@H]1O[C@H]1C(N)=O` [cerulenin], for which the ATP levels entry in assay [1] is recorded as “did not have an effect”; in assay [2] it was “elevated ATP levels compared to untreated cells; also recorded: increased levels of ATP”; in the assay on PINK1−/− MEFs, “elevated ATP levels compared to untreated cells; also recorded: increased levels of ATP”. Besides, in the assay with PINK−/− MEFs, the “cardiolipin (CL) levels” value is recorded as “almost completely restored the levels of all the CL species that were assessed back to control levels”. Also, in the assay with PINK1 mutant flies (PINK1 mutant flies on food with different concentrations of cerulenin, flight assay every 24 hours), the flight ability entry is given as “increased flight ability; also recorded: a dose-response effect was observed”.
